Here are results for three compounds from patent US20100031388A1, “MUTANT HISTIDINE KINASE THAT CONFERS SPONTANEOUS NODULATION IN PLANTS” (Plant Biosciences Ltd., priority 2006, published 2010).

Test [1] concerns Lrr5, Lhk1 and Nin transcripts. As to the kind of experiment: Quantitative RT-PCR of Lrr5, Lhk1 and Nin transcripts in roots and root explants in response to cytokinin. Type of test: in vivo, Lotus japonicus. The method, then:
Steady state levels of Lhk1 and ARR transcripts were determined in roots and other plant organs by quantitative RT-PCR analysis according to the following protocol.
Wild type and snf2 seeds were surface sterilised and germinated as described previously (Handberg, and Stougaard, (1992) Plant J. 2: 487). Plants were grown with 16 h light/8 h dark period at 21° C. Total RNA was isolated from roots, nodules, leaves, flowers and pods of inoculated wild type L. japonicus. mRNA was extracted from roots of wild type and snf2 plants grown for 2 weeks on ¼ B&D (Broughton and Dilworth, (1971) Biochem. J. 125: 1075) supplemented with 0.5 μM potassium nitrate. Roots were treated with 10 μM BAP for three time points, 30 minutes, 3 hours and 8 hours. Untreated roots were taken as control. mRNA was also extracted from root segments of wild type and snf2 plants grown for 10 days on hormone-free B5 salt medium and B5 salt medium supplemented with 0.5 μg/ml of BAP. Dynabeads mRNA direct kit (Invitrogen) was used for the extraction of mRNA.
First strand cDNA was prepared using reverse transcriptase (Fermentas). Quantitative PCR was performed on a Light Cycler (Roche Molecular Biochemicals) using Fast Start DNA master SYBR green kit (Roche) to amplify the target transcripts from 5 μl diluted cDNA. Four house keeping genes (Czechowski et al., (2005) Genome analysis 139: 5) were used to determine the relative expression of target genes (see below). For each treatment, normalized relative ratios of the target genes and the four independent house keeping genes have been calculated using the Relative Quantification Software (Quant) from Roche. The geometric mean (Vandesompele et al., (2002)Genome Biology 3:1) of the relative expression ratios for the three biological and technical replicates and the corresponding 95% intervals of confidence have been calculated as described previously (Radutoiu et al., (2003) Nature 425: 585).

The test system of the next test is cps::lacZ reporter. Briefly: Two-component phosphorelay assay in E. coli SRC122 (cps::lacZ), receptor activity read out as β-galactosidase. Type of test: cell-based. The settings on record: LB plates with/without t-zeatin, kinetin, BAP (200 μM) or thidiazuron (50 μM), 40 hours, 25° C. From the text: (§1) In this assay cytokinin induction can be determined without interference from endogenous cytokinin levels, cytokinin penetration and interfering metabolic pathways present in plants. The phosphorelay exploited in this assay is normally involved in regulating bacterial extracellular polysaccharide synthesis through activation of the cps operon in response to a sensor (RcsC), which has a domain structure similar to plant cytokinin receptors. Functional expression of a cytokinin receptor in an E. coli strain deleted of RcsC sensor allows cytokinin perception to be read out as β-galactosidase activity from the expression of a cps::lacZ fusion.
(§2) Accordingly the Lhk1 cDNAs, corresponding to wild type and snf2 allele were cloned into the pIN-III expression vector and transformed into the sensor-negative SRC122 (ΔRcsC) strain harbouring the cps::lacZ gene. The transformants were grown overnight in liquid […] and then spotted on LB plates, supplemented with and without t-zeatin, kinetin, BAP (200 μM) each and thidiazuron (50 μM). The LB media was further supplemented with X-Gal (5-bromo-4-chloro-3-indolyl-β-D-[…]), a β-galactosidase substrate. After 40 hours incubation at room temperature (25° C.), the plates were photographed. E coli strain (SRC122) was taken as a negative control.

A further test deals with wild type Lotus roots. Briefly: Spontaneous nodulation of wild type hairy roots transformed via A. rhizogenes, scored without rhizobia. Type of test: in vivo, Lotus japonicus. The settings on record: scored in absence of M. loti. The method, then:
Transgenic expression of the wild type or mutant snf2 allele in wild type Lotus roots was performed in order to confirm in planta the genetic basis for the spontaneous nodulation phenotype. A genomic fragment of 12.7 kb from the BAC clone 1 K18 was used to clone out the wild type Lhk1 gene including a 2.2 kb promoter region, and its Snf2 allele comprising the C→T transition, which were then sub-cloned into the pIV10 plasmid. The constructs were integrated into A. rhizogenes strain AR12 by tri-parental mating. Transformation was performed as described by Stougaard (1995) Method Mol Biology 49: Plant Gene Transfer and Expression Protocols, p. 49-63, and included transformation with an empty vector control.

For test [2], the system named is L. japonicus wild type and snf2 plants. The settings on record: increasing concentrations of BAP, 3 weeks (FIG. 8). The method, then:
Accordingly, wild type and snf2 plants were grown on ½ B5 salt with and without increasing concentrations of BAP for 3 weeks. Shoot and root length of at least 60 plants for each treatment was measured.

Test [3] relates to mutant LHK1 cytokinin receptor (snf2 allele). To be noted: liquid culture, snf2 allele expressing cells (FIG. 5B).
Text: as §1, §2

Test [4] has as its system wild type LHK1 cytokinin receptor. The settings on record: liquid culture, LHK1 expressing cells (FIG. 5B).
Text: as §1, §2

`c1ccc(CNc2ncnc3nc[nH]c23)cc1` [BAP, 6-benzylaminopurine]: in test [1] (snf2 and wild-type root explants on B5 medium, 0.5 μg/ml BAP, 10 days (FIG. 7B)), the “increase of Lrr5 transcript level” value is recorded as “two to three-fold”.
In the case of “Wild type Lhk1 allele: Wild type Lotus histidine kinase gene Lhk1 (SEQ ID NO:1, 2) encoding LHK1 cytokinin receptor protein (SEQ ID NO:3)”, the “β-galactosidase activity, plate assay (X-Gal)” value in the test on cps::lacZ reporter is recorded as “induced β-galactosidase activity in a cytokinin-dependent fashion”. In the test on wild type Lotus roots, the nodule number/nodulated plant is on record as 0 and the nodule number/plant was 0. The “% spontaneous nodulation” value with wild type Lotus roots ((nodulated/total plants)) is 0 (0/41) %.
For `C/C(=C\CNc1ncnc2nc[nH]c12)CO` [Cytokinin, Trans-zeatin], the “sensitivity of shoot and root growth of snf2 plants compared to wild type” value in test [2] is recorded as “hypersensitive”. Further, the “increase of β-galactosidase activity on cytokinin addition” value in test [3] is on record as “only a marginal increase”. The “induction of β-galactosidase activity on cytokinin addition” value in test [4] is on record as “two fold induction”. Further, the Lrr5 transcript level entry in test [1] (direct treatment of intact snf2 and wild-type roots, 10 μM BAP, 30 minutes, 3 hours, 8 hours (FIG. 7C)) is reported as “increased”. In test [1] (intact wild type and snf2 roots (FIG. 7D)), the Lhk1 gene transcripts result is “increase rapidly”. Also, in test [1] (intact wild type and snf2 roots (FIG. 7E)), the Nin gene transcription result is given as “transcriptionally upregulated”.
